Assay results as given in ChEMBL document CHEMBL1201862, “PubChem BioAssay data set” (2004).
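Protocol summary: plate cells (96-well), add compound at 5 concentrations, incubate 48 h, interpolate endpoints linearly. GI50 = concentration required for 50% inhibition of growth.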 Activity calls are given as the source filed them. Cut-off read from the data, not from the text of the source: active = GI50 up to about 1.1 µM and inactive = higher.

Legend:
Assay in all cases: growth of human tumour cells (NCI), 48 h
M19-MEL = system: M19-MEL
RXF 631 = system: RXF 631
COLO 205 = system: COLO 205
HOP-92 = system: HOP-92
DLD-1 = system: DLD-1
OVCAR-8 = system: OVCAR-8
ACHN = system: ACHN
A498 = system: A498
HCT-116 = system: HCT-116
SN12C = system: SN12C
UO-31 = system: UO-31
SF-539 = system: SF-539
SF-268 = system: SF-268
DMS-114 = system: DMS-114
SF-295 = system: SF-295
SR = system: SR
HOP-18 = system: HOP-18
SK-OV-3 = system: SK-OV-3
HCC 2998 = system: HCC 2998
A549 = system: A549
SK-MEL-2 = system: SK-MEL-2
SK-MEL-5 = system: SK-MEL-5
OVCAR-3 = system: OVCAR-3
LXFL 529 = system: LXFL 529
M14 = system: M14
TK-10 = system: TK-10
HL-60 = system: HL-60
RPMI-8226 = system: RPMI-8226
IGROV-1 = system: IGROV-1
U-251 = system: U-251
KM12 = system: KM12
OVCAR-5 = system: OVCAR-5
CCRF-CEM = system: CCRF-CEM
RXF 393 = system: RXF 393
CAKI-1 = system: CAKI-1
MOLT-4 = system: MOLT-4
NCI-H522 = system: NCI-H522
NCI-H460 = system: NCI-H460
K562 = system: K562
NCI-H23 = system: NCI-H23
LOX IMVI = system: LOX IMVI
OVCAR-4 = system: OVCAR-4
SNB-75 = system: SNB-75
SK-MEL-28 = system: SK-MEL-28
SNB-78 = system: SNB-78
DMS-273 = system: DMS-273
Malme-3M = system: Malme-3M
UACC-62 = system: UACC-62
HOP-62 = system: HOP-62
NCI-H226 = system: NCI-H226
EKVX = system: EKVX
KM-20L2 = system: KM-20L2
HT-29 = system: HT-29
HCT-15 = system: HCT-15
SNB-19 = system: SNB-19
786-0 = system: 786-0
UACC-257 = system: UACC-257
SW-620 = system: SW-620

## N#CC(/C(=N/NC(=O)C(=O)NN)C(=O)NC12CC3CC(CC(C3)C1)C2)c1ccccc1 (stereo not drawn)
M19-MEL
  GI50: > 100 µM (inactive)
RXF 631
  GI50: > 100 µM (inactive)
COLO 205
  GI50: > 100 µM (inactive)
HOP-92
  GI50: > 100 µM (inactive)
DLD-1
  GI50: > 100 µM (inactive)
OVCAR-8
  GI50: > 100 µM (inactive)
ACHN
  GI50: > 100 µM (inactive)
A498
  GI50: > 100 µM (inactive)
HCT-116
  GI50: > 100 µM (inactive)
SN12C
  GI50: > 100 µM (inactive)
UO-31
  GI50: > 100 µM (inactive)
SF-539
  GI50: > 100 µM (inactive)
SF-268
  GI50: > 100 µM (inactive)
DMS-114
  GI50: > 100 µM (inactive)
SF-295
  GI50: > 100 µM (inactive)
SR
  GI50: > 100 µM (inactive)
HOP-18
  GI50: > 100 µM (inactive)
SK-OV-3
  GI50: > 100 µM (inactive)
HCC 2998
  GI50: > 100 µM (inactive)
A549
  GI50: > 100 µM (inactive)
SK-MEL-2
  GI50: > 100 µM (inactive)
SK-MEL-5
  GI50: > 100 µM (inactive)
OVCAR-3
  GI50: > 100 µM (inactive)
LXFL 529
  GI50: > 100 µM (inactive)
M14
  GI50: > 100 µM (inactive)
TK-10
  GI50: > 100 µM (inactive)
HL-60
  GI50: > 100 µM (inactive)
RPMI-8226
  GI50: > 100 µM (inactive)
IGROV-1
  GI50: > 100 µM (inactive)
U-251
  GI50: > 100 µM (inactive)
KM12
  GI50: > 100 µM (inactive)
OVCAR-5
  GI50: > 100 µM (inactive)
CCRF-CEM
  GI50: > 100 µM (inactive)
RXF 393
  GI50: > 100 µM (inactive)
CAKI-1
  GI50: > 100 µM (inactive)
MOLT-4
  GI50: > 100 µM (inactive)
NCI-H522
  GI50: > 100 µM (inactive)
NCI-H460
  GI50: > 100 µM (inactive)
K562
  GI50: > 100 µM (inactive)
NCI-H23
  GI50: > 100 µM (inactive)
LOX IMVI
  GI50: > 100 µM (inactive)
OVCAR-4
  GI50: > 100 µM (inactive)
SNB-75
  GI50: > 100 µM (inactive)
SK-MEL-28
  GI50: > 100 µM (inactive)
SNB-78
  GI50: > 100 µM (inactive)
DMS-273
  GI50: > 100 µM (inactive)
Malme-3M
  GI50: > 100 µM (inactive)
UACC-62
  GI50: > 100 µM (inactive)
HOP-62
  GI50: > 100 µM (inactive)
NCI-H226
  GI50: > 100 µM (inactive)
EKVX
  GI50: > 100 µM (inactive)
KM-20L2
  GI50: > 100 µM (inactive)
HT-29
  GI50: > 100 µM (inactive)
HCT-15
  GI50: > 100 µM
SNB-19
  GI50: > 100 µM (inactive)
786-0
  GI50: > 100 µM (inactive)
UACC-257
  GI50: > 100 µM (inactive)
SW-620
  GI50: > 100 µM (inactive)
